Source: paper PMC9646747, “An allosteric modulator activates BK channels by perturbing coupling between Ca^2+ binding and pore opening” (Nature Communications, 2022)

Target: T1, BK channel (Slo1, mslo1 mbr5 splice variant) (Mus musculus, UniProt Q08460)
T1 construct: gene Kcnma1; mbr5 splice variant of mslo1
Assay: inside-out patch-clamp of channels expressed in Xenopus oocytes (GV shift dose response; also outward-current block, IC50 […]), supported by mutagenesis
Format: cell-based

COc1cc(NC(=O)[C@@H](N)CCCNC(=N)N)cc2ccccc12 [BC5]
EC50: 2.5 ± 0.3 µM
